Results from US6969702B2, “Compounds and methods for increasing neurogenesis” (priority 2002, dated 2005).
Read-outs that look alike come from different tables or passages of the source. Marks after values point to notes of the source that are not given here. Bridge positions count the residues as written; N and C are the ends. Square brackets hold non-standard residues; d marks the D form. Ends that are not written are not given here. Peptide text beside a SMILES is read from it. pGlu = O=C1CC[C@@H](C(=O)O)N1

Assays:
[1] = system: mouse adult neural stem cells; test: ATP-assay: proliferation (ATP levels) of neurosphere-derived cells; details: for Fold Induction ATP: vs vehicle
[2] = system: Adult neural stem cells; test: Flow cytometry for early neuronal marker Doublecortin; details: Table 6, 100 nM; for % Doublecortin-positive cells: 4 days; for Fold Induction (Doublecortin-positive cells): vs EGF/FGF
[3] = system: NFAT-Luciferace reporter (Ca^2+); details: Table 4; for NFAT Luciferace units: 24 hours after induction; for Fold Induction NFAT: vs vehicle
[4] = system: cAMP activation in mouse adult neural stem cells; test: cAMP detection (HitHunter EFC Cyclic AMP Chemiluminescence Assay); details: Table 2
[5] = Table 4, concentration not given

## CC[C@H](C)[C@H](NC(=O)[C@H](Cc1ccc(O)cc1)NC(=O)[C@@H](NC(=O)[C@H](CCCNC(=N)N)NC(=O)[C@@H](N)CC(=O)O)C(C)C)C(=O)N[C@@H](Cc1cnc[nH]1)C(=O)N1CCC[C@H]1C(=O)N[C@@H](Cc1ccccc1)C(=O)O [Angiotensin II (human synthetic)]
[1]; [5]
  ATP (nM ATP/well): 11.7 ± 0.6 nM ATP/well
  Fold Induction ATP: 1.2* fold
[2]
  % Doublecortin-positive cells: 3.1%
  Fold Induction (Doublecortin-positive cells): 1.2 fold
[3]; concentration not given
  NFAT Luciferace units: 12.0 ± 3.7 Luciferace units
  Fold Induction NFAT: 2.1* fold

## CC(C)C[C@H](NC(=O)CNC(=O)[C@H](C)NC(=O)[C@H](CC(C)C)NC(=O)[C@H](CCCNC(=N)N)NC(=O)[C@H](Cc1cnc[nH]1)NC(=O)[C@@H](NC(=O)[C@@H](N)C(C)C)[C@@H](C)O)C(=O)N[C@@H](CC(C)C)C(=O)N[C@@H](CO)C(=O)N[C@@H](CCCNC(=N)N)C(=O)N[C@@H](CO)C(=O)NCC(=O)NCC(=O)N[C@H](C(=O)N[C@H](C(=O)N[C@@H](CCCCN)C(=O)N[C@@H](CC(N)=O)C(=O)N[C@@H](CC(N)=O)C(=O)N[C@@H](Cc1ccccc1)C(=O)N[C@H](C(=O)N1CCC[C@H]1C(=O)N[C@H](C(=O)N[C@@H](CC(N)=O)C(=O)N[C@H](C(=O)NCC(=O)N[C@@H](CO)C(=O)N[C@@H](CCCCN)C(=O)N[C@@H](C)C(=O)N[C@@H](Cc1ccccc1)C(N)=O)C(C)C)[C@@H](C)O)C(C)C)C(C)C)C(C)C [CGRP (8-37)]
[1]; Table 4, 100 nM
  Fold Induction ATP: 1.2** fold
[3]; 15 nM
  Fold Induction NFAT: 1.3** fold

## CC[C@H](C)[C@H](NC(=O)[C@H](C)NC(=O)[C@H](CC(=O)O)NC(=O)[C@H](C)NC(=O)[C@@H](N)Cc1ccc(O)cc1)C(=O)N[C@@H](Cc1ccccc1)C(=O)N[C@H](C(=O)N[C@@H](CC(N)=O)C(=O)N[C@@H](CO)C(=O)N[C@@H](Cc1ccc(O)cc1)C(=O)N[C@@H](CCCNC(=N)N)C(=O)N[C@@H](CCCCN)C(=O)N[C@H](C(=O)N[C@@H](CC(C)C)C(=O)NCC(=O)N[C@@H](CCC(N)=O)C(=O)N[C@@H](CC(C)C)C(=O)N[C@@H](CO)C(=O)N[C@@H](C)C(=O)N[C@@H](CCCNC(=N)N)C(=O)N[C@@H](CCCCN)C(=O)N[C@@H](CC(C)C)C(=O)N[C@@H](CC(C)C)C(=O)N[C@@H](CCC(N)=O)C(=O)N[C@@H](CC(=O)O)C(=O)N[C@H](C(=O)N[C@@H](CCSC)C(=O)N[C@@H](CO)C(=O)N[C@@H](CCCNC(=N)N)C(=O)N[C@@H](CCC(N)=O)C(=O)N[C@@H](CCC(N)=O)C(=O)NCC(=O)N[C@@H](CCC(=O)O)C(=O)N[C@@H](CO)C(=O)N[C@@H](CC(N)=O)C(=O)N[C@@H](CCC(N)=O)C(=O)N[C@@H](CCC(=O)O)C(=O)N[C@@H](CCCNC(=N)N)C(=O)NCC(=O)N[C@@H](C)C(=O)N[C@@H](CCCNC(=N)N)C(=O)N[C@@H](C)C(=O)N[C@@H](CCCNC(=N)N)C(=O)N[C@@H](CC(C)C)C(N)=O)[C@@H](C)CC)C(C)C)[C@@H](C)O [Growth Hormone Releasing Factor]
[1]; Table 4, 10 nM
  ATP (nM ATP/well): 12.6 ± 0.9 nM ATP/well
[3]; 15 nM
  NFAT Luciferace units: 4.5 ± 0.6 Luciferace units

## CC[C@H](C)[C@H](NC(=O)[C@@H](NC(=O)[C@H](CC(=O)O)NC(=O)[C@H](CCC(N)=O)NC(=O)[C@H](Cc1c[nH]cn1)NC(=O)[C@@H]1CSSC[C@H](N)C(=O)N[C@@H](CO)C(=O)N[C@H]2CSSC[C@H](NC(=O)[C@H](CCC(=O)O)NC(=O)[C@H](CCCCN)NC(=O)[C@H](CC(=O)O)NC(=O)[C@H]([C@@H](C)O)NC(=O)[C@H](CCSC)NC(=O)[C@H](CC(=O)O)NC(=O)[C@H](CCCCN)NC2=O)C(=O)N[C@@H](CC(C)C)C(=O)N[C@@H](Cc2ccc(O)cc2)C(=O)N[C@@H](Cc2ccccc2)C(=O)N1)C(C)C)C(=O)N[C@@H](Cc1c[nH]c2ccccc12)C(=O)O [Sarafotoxin S6b] (H-CSCKDMTDKECLYFCHQDVIW-OH; disulfide 1-15, 3-11 (inferred); N-terminus and C-terminus assumed)
[1]; Table 2, 100 nM, 4 days
  ATP (nM ATP/well): 43.0 ± 7.8 nM ATP/well
[1]; Table 4, 100 nM
  ATP (nM ATP/well): 43.0 ± 7.8 nM ATP/well
[3]; 100 nM
  NFAT Luciferace units: 13.4 ± 7.0 Luciferace units
[4]; 100 nM (cAMP concentration)
  cAMP (pmol/well): 0.43 ± 0.22 pmol/well

## CC[C@H](C)[C@H](NC(=O)[C@@H](NC(=O)[C@H](CC(=O)O)NC(=O)[C@H](CCC(N)=O)NC(=O)[C@H](Cc1c[nH]cn1)NC(=O)[C@@H]1CSSC[C@H](N)C(=O)N[C@@H]([C@@H](C)O)C(=O)N[C@H]2CSSC[C@H](NC(=O)[C@H](CCC(=O)O)NC(=O)[C@H](CCC(=O)O)NC(=O)[C@H](CC(=O)O)NC(=O)[C@H]([C@@H](C)O)NC(=O)[C@H](CCSC)NC(=O)[C@H](CC(=O)O)NC(=O)[C@H](CC(N)=O)NC2=O)C(=O)N[C@@H](CC(C)C)C(=O)N[C@@H](CC(N)=O)C(=O)N[C@@H](Cc2ccccc2)C(=O)N1)C(C)C)C(=O)N[C@@H](Cc1c[nH]c2ccccc12)C(=O)O [Sarafotoxin S6c]
[1]; Table 2, 10 nM, 4 days
  ATP (nM ATP/well): 39.9 ± 6.6 nM ATP/well
[1]; Table 4, 1 nM
  ATP (nM ATP/well): 41.6 ± 4.8 nM ATP/well
[3]; 1 nM
  NFAT Luciferace units: 8.3 ± 2.0 Luciferace units
[4]; 10 nM (cAMP concentration)
  cAMP (pmol/well): 0.21 ± 0.03 pmol/well

## CSCC[C@H](NC(=O)[C@H](CC(C)C)NC(=O)[C@@H]1CCCN1C(=O)[C@H](Cc1ccccc1)NC(=O)[C@H](Cc1ccccc1)NC(=O)[C@@H]1CCC(=O)N1)C(N)=O [Septide] ([pGlu]FFPLM-NH2; C-terminus assumed)
[1]; Table 4, 100 nM
  ATP (nM ATP/well): 25.1 ± 3.1 nM ATP/well
[3]; 100 nM
  NFAT Luciferace units: 3.7 ± 0.9 Luciferace units

## CSCC[C@H](NC(=O)[C@H](C)NC(=O)[C@@H]1CCCN1C(=O)[C@H](CC(N)=O)NC(=O)[C@H](CO)NC(=O)[C@H](CC(N)=O)NC(=O)[C@H](C)NC(=O)[C@@H](N)CO)C(=O)N[C@@H](C)C(=O)N1CCC[C@H]1C(=O)N[C@@H](CCCNC(=N)N)C(=O)N[C@@H](CCC(=O)O)C(=O)N[C@@H](CCCNC(=N)N)C(=O)N[C@@H](CCCCN)C(=O)N[C@@H](C)C(=O)NCC(=O)N[C@H]1CSSC[C@@H](C(=O)O)NC(=O)[C@H](CO)NC(=O)[C@H]([C@@H](C)O)NC(=O)[C@H](Cc2ccccc2)NC(=O)[C@H]([C@@H](C)O)NC(=O)[C@H](CCCCN)NC(=O)[C@H](Cc2c[nH]c3ccccc23)NC(=O)[C@H](Cc2ccccc2)NC(=O)[C@H](Cc2ccccc2)NC(=O)[C@H](CC(N)=O)NC(=O)[C@H](CCCCN)NC1=O [Somatostatin-28]
[1]; Table 4, 10 nM
  ATP (nM ATP/well): 17.1 ± 1.5 nM ATP/well
  Fold Induction ATP: 1.2* fold
[3]; 100 nM
  NFAT Luciferace units: 3.0 ± 0.4 Luciferace units
  Fold Induction NFAT: 1.6* fold

## KYGQVPMCDAGEQCAVRKGARIGKLCDCPRGTSCNSFLLKCL (disulfide 8-26, 14-34, 28-41) [CART (61-102)]
[1]; Table 2, 100 nM, 4 days
  ATP (nM ATP/well): 8.3 ± 0.4 nM ATP/well
  Fold Induction ATP: 1.2** fold
[2]
  % Doublecortin-positive cells: 4.7%
  Fold Induction (Doublecortin-positive cells): 1.8 fold
[4]; 10 nM (cAMP concentration)
  cAMP (pmol/well): 0.13 ± 0.02 pmol/well
[4]; 10 nM, vs vehicle
  Fold Induction cAMP: 1.2* (10 nM) fold
